Our source for the IC50 values is patent US11261185B2, “Bicyclic heterocyclic derivatives” (Merck Patent GmbH, priority 2015, dated 2022).

In general, IC50 refers to the concentration at which inhibition is half-maximal.

The experiment deals with PDH-E1 alpha (pSer300) in HEK293T cells. The experiment in a line: Cellular immunofluorescence assay for compound activities (PDH-E1 alpha pSer300). Format: cell-based, human. As to conditions: 5 hours incubation, Anti-PDH-E1 alpha (pSer300) immunofluorescence, read-out: IC50 (cell data). The protocol:
Cellular Assay for Determination of Compound Activities
Compound activities were determined in a cellular immunofluorescence assay. Human HEK293T cells were seeded into black 384-well plates with clear bottom and grown overnight.
Next day, test compounds were added to the wells and the plates incubated for 5 hours. Following this, cells were fixed with formaldehyde, permeabilised and blocked. The primary antibody, Anti-PDH-E1 alpha (pSer300), AP1064 (Merck Millipore) was added and incubated overnight in the plate wells. Next, cells were washed and the seconday antibody, Alexa Fluor 488, goat anti-rabbit ab (A-11008, Invitrogen) was added together with Hoechst 33258 (H3569, Invitrogen) and incubated for 1 hour in the plate wells. Finally, cells were washed and the plates were measured on the laser scanning cytometer acumen hci (TTpLabtech).
The raw data were normalized against a pharmacological inhibitor control and dose response curves were generated by plotting the percent effect values using the software package Genedata screener (Genedata).

Consider `C[C@@](O)(C(=O)N1CCc2c(ncn2-c2ccc(Cl)cc2)C1)C(F)(F)F` [Compound A45, (R)-1-[1-(4-Chloro-phenyl)-1,4,6,7-tetrahydro-imidazo[4,5-c]pyridin-5-yl]-3,3,3-trifluoro-2-hydroxy-2-methyl-propan-1-one], for which the IC50 lay within 3 to 50 µM.

For `C[C@@](O)(C(=O)N1CCc2c(ncn2-c2ccc(F)cc2)C1)C(F)(F)F` [Compound A44, (R)-3,3,3-Trifluoro-1-[1-(4-fluoro-phenyl)-1,4,6,7-tetrahydro-imidazo[4,5-c]pyridin-5-yl]-2-hydroxy-2-methyl-propan-1-one], the concentration for half-maximal inhibition (IC50) fell in the range of 3 to 50 µM.
